This experiment has as its target Nischarin / imidazoline I1 receptor (Rattus norvegicus). Kind of experiment: Displacement of [125I]p-iodoclonidine from imidazoline receptor I-1 in rat pheochromocytoma cells. In general terms: Loss of bound radioactivity is the signal in a displacement assay; it reports binding, not function.

SMILES strings stand for the structures.

Broadly, the Ki is a dissociation constant, usually derived from enzyme kinetics or from competition with a known ligand. Turning to `C[C@H](CC1=NCCN1)c1ccccc1`, the affinity corresponds to a Ki of 0.589 µM.
`CC(CC1=NCCN1)c1ccccc1` (stereo not given) had a Ki of 6.03 µM. Against the preceding compound, the Ki is about 10-fold higher.
The figure for `C[C@@H](CC1=NCCN1)c1ccccc1` is 7.24 µM.
`CC(Oc1ccccc1)C1=NCCN1` (stereo not given) displayed an inhibition constant (Ki) of 0.309 µM. Against the preceding compound, the Ki is about 23-fold lower.
The figure for `c1ccc(CCC2=NCCN2)cc1` [2-Phenethyl-4,5-dihydro-1H-imidazole] is 3.71 µM.

The record behind these values is BindingDB's records for doi:10.1021/jm021113r (University of Camerino, 2003).
